What was measured:
[1] = molecular target: T1, Calpain-1 catalytic subunit (Homo sapiens, UniProt P07384); test: (§1) Inhibitory activity of compound against recombinant human Calpain 1
T1 sequence (P07384 whole entry): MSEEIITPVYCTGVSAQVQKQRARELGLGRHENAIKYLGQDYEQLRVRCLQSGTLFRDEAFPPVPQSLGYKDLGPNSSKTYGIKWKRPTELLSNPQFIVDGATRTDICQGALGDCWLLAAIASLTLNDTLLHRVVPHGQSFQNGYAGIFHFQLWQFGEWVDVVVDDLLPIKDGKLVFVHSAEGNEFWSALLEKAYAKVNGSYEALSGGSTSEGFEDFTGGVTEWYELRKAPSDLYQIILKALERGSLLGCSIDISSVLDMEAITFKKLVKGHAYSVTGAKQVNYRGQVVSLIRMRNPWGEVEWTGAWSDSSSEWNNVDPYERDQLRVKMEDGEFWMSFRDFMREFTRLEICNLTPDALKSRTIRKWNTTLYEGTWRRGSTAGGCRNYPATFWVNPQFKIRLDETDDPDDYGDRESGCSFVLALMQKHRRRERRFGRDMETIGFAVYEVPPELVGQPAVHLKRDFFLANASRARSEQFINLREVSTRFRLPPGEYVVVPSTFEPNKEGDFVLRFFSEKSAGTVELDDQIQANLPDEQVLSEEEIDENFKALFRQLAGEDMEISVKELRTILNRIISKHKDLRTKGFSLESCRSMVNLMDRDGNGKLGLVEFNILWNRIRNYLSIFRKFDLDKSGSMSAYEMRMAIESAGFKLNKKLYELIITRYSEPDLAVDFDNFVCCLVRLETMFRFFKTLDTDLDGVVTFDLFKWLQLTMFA

[2] = molecular target: T2, Calpain-1 catalytic subunit (Homo sapiens) (UniProt P07384); test: as §1
T2 sequence (whole entry): T1 sequence (P07384 whole entry)

IC50 [1] [µM]	K obs / 1 [2] [M⁻¹ s⁻¹]	SMILES
0.13	–	CCNC(=O)C(CC(C)C)NC(=O)[C@@H](CC(=O)C1c2ccccc2Oc2ccccc21)CC(C)C (stereo partly specified)
0.05	–	CC(C)C[C@H](CC(=O)C(c1ccccc1)c1ccccc1)C(=O)N[C@H](C=O)CC(C)C
0.025	–	CC(C)C[C@H](CC(=O)C1c2ccccc2Oc2ccccc21)C(=O)N[C@H](C=O)CC(C)C
–	76000	CC(C)C[C@H](CC(=O)C1c2ccccc2Oc2ccccc21)C(=O)NC(Cc1ccccc1)C(=O)CF (stereo partly specified)
0.138	–	CC(C)C[C@H](CC(=O)CCCCc1ccccc1)C(=O)N[C@H](C=O)CC(C)C
0.24	–	CCNC(=O)C(=O)C(CC)NC(=O)[C@H](CC(C)C)NC(=O)OCc1ccccc1 (stereo partly specified)
